Measured values from PMC11772769, “Selective cargo and membrane recognition by SNX17 regulates its interaction with Retriever” (EMBO Reports, 2024).
Numbering of substitutions follows the chain as printed. Where two headings read alike, the source gives them in different places. Where no end group is shown, it is not given here.

What was measured:
[1] = molecular target: T1, SNX17FERM-CT (amino acids 109-470) (Homo sapiens, UniProt Q15036); experiment: Fluorescence anisotropy binding of 5-FAM cargo peptides to SNX17FERM-CT
T1 construct: His-Sumo3 (N, cleaved yes); made in house; host or cells: Escherichia coli BL21(DE3)
T1 sequence (Q15036 109-470): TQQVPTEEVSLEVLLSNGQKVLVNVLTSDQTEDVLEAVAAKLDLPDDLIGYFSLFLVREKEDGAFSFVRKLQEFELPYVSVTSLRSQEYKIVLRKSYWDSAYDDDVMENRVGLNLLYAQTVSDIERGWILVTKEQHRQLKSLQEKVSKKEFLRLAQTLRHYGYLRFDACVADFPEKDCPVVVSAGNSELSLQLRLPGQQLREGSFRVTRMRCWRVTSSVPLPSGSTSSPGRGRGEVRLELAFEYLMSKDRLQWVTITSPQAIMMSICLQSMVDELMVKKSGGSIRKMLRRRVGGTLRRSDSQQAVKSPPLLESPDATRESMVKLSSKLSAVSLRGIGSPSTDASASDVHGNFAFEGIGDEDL
Protocol: (§1) Lyophilized peptides were resuspended in 100 mM Hepes pH 8.0 at 5 mg/ml and further diluted in the assay buffer (50 mM Hepes pH 7.5, 300 mM NaCl, and 1 mM DTT). […] The mixture was incubated at 25 °C for at least 30 min and then transferred to 96 Flat Black plates. Fluorescence anisotropy was measured at 25 °C using Spark 10M Plate Reader (Tecan) with a 485/20 excitation filter and a 535/35 emission filter. The dissociation constants were calculated in GraphPad Prism by nonlinear regression fitting of the experimental data to a one-site total binding model. The final KD measurement is the mean of at least two independent experiments.

[2] = molecular target: T2, MBP-SNX17H457A (Homo sapiens, UniProt Q15036, H457A); experiment: Fluorescence anisotropy binding of 5-FAM peptides to MBP-SNX17 H457A
T2 construct: M protein marker, R Retriever complex, FL full-length; His (N, cleaved yes); made in house; host or cells: Escherichia coli BL21(DE3)
T2 sequence (Q15036 1-470 H457A): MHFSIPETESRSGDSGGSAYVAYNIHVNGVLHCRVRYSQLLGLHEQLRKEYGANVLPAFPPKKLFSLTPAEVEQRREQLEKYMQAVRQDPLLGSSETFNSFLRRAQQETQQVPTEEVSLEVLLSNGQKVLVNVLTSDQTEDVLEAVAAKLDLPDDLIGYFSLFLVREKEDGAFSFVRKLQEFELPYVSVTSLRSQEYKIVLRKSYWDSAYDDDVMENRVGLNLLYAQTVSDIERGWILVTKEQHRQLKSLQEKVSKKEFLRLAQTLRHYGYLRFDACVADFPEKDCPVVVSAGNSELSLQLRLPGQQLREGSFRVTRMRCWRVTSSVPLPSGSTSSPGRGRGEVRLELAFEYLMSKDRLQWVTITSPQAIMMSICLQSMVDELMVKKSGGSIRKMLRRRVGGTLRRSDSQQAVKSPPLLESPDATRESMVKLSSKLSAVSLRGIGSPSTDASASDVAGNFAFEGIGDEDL
Protocol: as §1

[3] = molecular target: T3, MBP-SNX17N459A+F462A (Homo sapiens, UniProt Q15036, F462A/N459A); experiment: Fluorescence anisotropy binding of 5-FAM peptides to MBP-SNX17 N459A+F462A
T3 construct: M protein marker, R Retriever complex, FL full-length; His (N, cleaved yes); made in house; host or cells: Escherichia coli BL21(DE3)
T3 sequence (Q15036 1-470 N459A/F462A): T2 sequence (Q15036 1-470 H457A) with A457H, N459A, F462A
Protocol: as §1

[4] = molecular target: MBP (Escherichia coli, UniProt P0AEX9); experiment: Fluorescence anisotropy, MBP negative control; type: binding
Protocol: as §1

[5] = molecular target: T4, MBP-SNX17 L470G (Homo sapiens, UniProt Q15036, L470G); experiment: Fluorescence anisotropy binding of 5-FAM cargo peptides to MBP-SNX17 L470G
T4 construct: M protein marker, R Retriever complex, FL full-length; His (N, cleaved yes); made in house; host or cells: Escherichia coli BL21(DE3)
T4 sequence (Q15036 1-470 L470G): T2 sequence (Q15036 1-470 H457A) with A457H, L470G
Protocol: as §1, with “The peptides used for binding assays were synthesized with an N-terminal 5-Carboxyfluorescein (FAM) and HPLC purified (≥95%) by GenScript. Lyophilized” for “Lyophilized”

KLITYDNPAYEGID [L2 14-mer] was tested, and the Kd [1] was 640 nM, the Kd [2] was 1100 ± 300 nM and the Kd [3] was 600 ± 100 nM. For the same sequence, the Kd ([4]; 0.1 μM 5-FAM peptide, pH 7.5, 300 mM NaCl, 25 °C (Fig. EV3B), read-out: KD MBP (negative control)) was greater than 32000 nM, the Kd ([4]; 5-FAM peptide, replicate Y1, sheet KD-L2-14-mer, unit inferred, read-out: KD MBP) was greater than 32000 nM and the Kd ([4]; 5-FAM peptide, replicate Y2, sheet KD-L2-14-mer, unit inferred, read-out: KD MBP) was greater than 32000 nM. It also gave a Kd ([4]; 5-FAM peptide, replicate Y3, sheet KD-L2-14-mer, unit inferred, read-out: KD MBP) greater than 32000 nM and a Kd [5] of 1100 ± 600 nM.
